Active and inactive are the calls of the source. The calls are words filed in the database; no cut-off is given here. Where only a bound is given, the exact number is not on record here.

Consider 31 molecules from ChEMBL document CHEMBL4622975 (J Med Chem, 2020).

The target in data set [1] is T1, Tyrosine-protein phosphatase non-receptor type 1 (Homo sapiens, UniProt P18031).
T1 sequence (P18031 whole entry): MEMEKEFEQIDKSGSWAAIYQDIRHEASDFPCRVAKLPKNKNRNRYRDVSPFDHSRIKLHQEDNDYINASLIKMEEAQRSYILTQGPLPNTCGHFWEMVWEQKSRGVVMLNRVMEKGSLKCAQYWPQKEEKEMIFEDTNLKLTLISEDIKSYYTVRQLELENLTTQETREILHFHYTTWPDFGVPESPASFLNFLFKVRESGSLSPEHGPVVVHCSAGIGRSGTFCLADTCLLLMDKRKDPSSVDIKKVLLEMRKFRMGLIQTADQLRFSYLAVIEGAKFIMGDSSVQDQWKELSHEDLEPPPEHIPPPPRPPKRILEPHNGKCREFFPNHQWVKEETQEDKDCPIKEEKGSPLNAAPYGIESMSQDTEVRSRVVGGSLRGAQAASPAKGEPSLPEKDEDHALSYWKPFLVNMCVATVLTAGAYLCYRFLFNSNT

The target of data set [2] is T2, Tyrosine-protein phosphatase non-receptor type 11 (Homo sapiens, UniProt Q06124).
T2 sequence (Q06124 whole entry): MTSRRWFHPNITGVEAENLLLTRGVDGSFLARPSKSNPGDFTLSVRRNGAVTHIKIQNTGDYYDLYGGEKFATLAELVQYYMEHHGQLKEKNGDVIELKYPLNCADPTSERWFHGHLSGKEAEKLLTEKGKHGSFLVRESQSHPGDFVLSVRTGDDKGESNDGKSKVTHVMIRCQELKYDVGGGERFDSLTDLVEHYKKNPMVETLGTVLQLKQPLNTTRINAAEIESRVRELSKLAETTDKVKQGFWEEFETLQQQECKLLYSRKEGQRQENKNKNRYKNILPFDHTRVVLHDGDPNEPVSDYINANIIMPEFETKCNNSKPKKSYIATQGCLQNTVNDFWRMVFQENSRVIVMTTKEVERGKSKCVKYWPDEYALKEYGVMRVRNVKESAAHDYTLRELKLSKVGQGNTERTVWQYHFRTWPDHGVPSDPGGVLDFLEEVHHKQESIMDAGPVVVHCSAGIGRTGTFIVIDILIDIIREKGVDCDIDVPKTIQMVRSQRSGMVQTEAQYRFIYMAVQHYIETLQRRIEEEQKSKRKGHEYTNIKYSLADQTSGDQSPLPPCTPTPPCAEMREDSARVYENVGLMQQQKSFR

The target in data set [3] is T3, Phosphotyrosine protein phosphatase (Mycobacterium tuberculosis, UniProt A0A045ISB3).
T3 sequence (A0A045ISB3 whole entry): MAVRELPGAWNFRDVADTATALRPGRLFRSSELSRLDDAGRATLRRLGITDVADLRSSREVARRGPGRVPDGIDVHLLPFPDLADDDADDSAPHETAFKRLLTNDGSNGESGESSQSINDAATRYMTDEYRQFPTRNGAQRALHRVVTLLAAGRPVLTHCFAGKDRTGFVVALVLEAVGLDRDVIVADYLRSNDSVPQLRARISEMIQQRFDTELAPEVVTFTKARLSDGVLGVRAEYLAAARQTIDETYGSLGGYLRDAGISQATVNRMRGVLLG
Description: Inhibition of Mycobacterium tuberculosis PTPB expressed in Escherichia coli BL21 (DE3) using p-nitrophenyl phosphate as substrate measured after 30 mins by UV-vis spectrophotometric method

The nature of data set [4]: Drug uptake in mouse RAW264.7 cells at 20 uM measured after 2 hrs by LC-MS analysis. In kind it is ADME, cell-based. Particulars: raw264.7, 2 h.
Data set [5] concerns the target Tyrosine-protein phosphatase non-receptor type 6 (Homo sapiens, UniProt P29350).
A short description of data set [6]: Stability in CD1 mouse pooled liver microsomes measured after 2 hrs in absence of NADPH by LC-MS/MS analysis. In kind it is ADME, Microsome. On the technique in general: Liver microsomes are vesicles of endoplasmic reticulum, rich in cytochrome P450 enzymes.
Another data set concerns MEF. Kind of data set: Cytotoxicity against MEF at 25 uM measured after 72 hrs by MTT assay. In kind it is cell-based. To be noted: mouse. A general note: Tetrazolium assays rely on reduction of a dye to a coloured formazan, in cell work by metabolically active cells.
In data set [7] the target is Receptor-type tyrosine-protein phosphatase epsilon (Homo sapiens, UniProt P23469).
In data set [8] the target is T4, Phosphotyrosine protein phosphatase (Mycobacterium tuberculosis) (UniProt A0A045ISB3).
T4 sequence (whole entry): T3 sequence (A0A045ISB3 whole entry)
Description: Time-dependent inhibition of Mycobacterium tuberculosis PTPB expressed in Escherichia coli BL21 (DE3) using p-nitrophenyl phosphate as substrate in presence of Triton-X-100 by UV-vis spectrophotometric method

Data set [9] deals with T4, Phosphotyrosine protein phosphatase (Mycobacterium tuberculosis). This is another data set of the same source.
Description: Time-dependent inhibition of Mycobacterium tuberculosis PTPB expressed in Escherichia coli BL21 (DE3) using p-nitrophenyl phosphate as substrate in absence of Triton-X-100 by UV-vis spectrophotometric method

Chain of Tyrosine-protein phosphatase non-receptor type 6 (P29350 whole entry): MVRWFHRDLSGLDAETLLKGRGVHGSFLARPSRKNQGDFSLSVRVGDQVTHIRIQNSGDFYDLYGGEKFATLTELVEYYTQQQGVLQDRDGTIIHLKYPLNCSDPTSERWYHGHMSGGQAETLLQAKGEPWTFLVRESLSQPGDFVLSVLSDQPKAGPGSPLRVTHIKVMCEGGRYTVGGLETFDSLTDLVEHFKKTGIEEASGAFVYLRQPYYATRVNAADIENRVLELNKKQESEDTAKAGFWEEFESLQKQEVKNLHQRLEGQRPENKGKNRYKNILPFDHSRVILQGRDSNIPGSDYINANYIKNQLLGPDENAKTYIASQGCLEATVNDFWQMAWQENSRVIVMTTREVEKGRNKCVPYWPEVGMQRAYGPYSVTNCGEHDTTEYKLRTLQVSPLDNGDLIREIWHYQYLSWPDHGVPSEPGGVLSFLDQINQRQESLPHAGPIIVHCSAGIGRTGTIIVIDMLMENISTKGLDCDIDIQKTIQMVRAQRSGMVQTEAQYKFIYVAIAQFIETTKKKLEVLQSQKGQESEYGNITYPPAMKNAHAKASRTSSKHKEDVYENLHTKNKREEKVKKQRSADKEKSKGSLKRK
Chain of Receptor-type tyrosine-protein phosphatase epsilon (P23469 whole entry): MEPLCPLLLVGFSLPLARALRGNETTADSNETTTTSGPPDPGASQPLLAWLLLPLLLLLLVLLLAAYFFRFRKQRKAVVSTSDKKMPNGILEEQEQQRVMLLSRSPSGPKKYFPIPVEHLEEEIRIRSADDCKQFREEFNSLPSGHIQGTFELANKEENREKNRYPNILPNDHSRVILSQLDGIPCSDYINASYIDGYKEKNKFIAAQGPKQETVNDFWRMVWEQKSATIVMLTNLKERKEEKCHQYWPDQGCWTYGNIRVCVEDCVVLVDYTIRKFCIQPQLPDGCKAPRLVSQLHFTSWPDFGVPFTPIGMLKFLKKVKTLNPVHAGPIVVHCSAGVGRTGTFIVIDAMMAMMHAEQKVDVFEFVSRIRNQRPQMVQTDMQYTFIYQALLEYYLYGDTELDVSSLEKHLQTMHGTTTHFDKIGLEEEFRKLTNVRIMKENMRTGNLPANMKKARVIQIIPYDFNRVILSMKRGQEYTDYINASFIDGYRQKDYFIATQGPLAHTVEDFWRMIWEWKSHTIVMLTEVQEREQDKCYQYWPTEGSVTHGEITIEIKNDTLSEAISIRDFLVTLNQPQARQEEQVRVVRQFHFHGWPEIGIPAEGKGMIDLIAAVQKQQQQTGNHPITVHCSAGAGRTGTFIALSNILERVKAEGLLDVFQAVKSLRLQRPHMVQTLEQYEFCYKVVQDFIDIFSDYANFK

The term IC50 denotes the point on the concentration scale where inhibition reaches its midpoint. A higher IC50 goes with weaker potency. Consider `O=C(O)C(=O)Nc1ccc(/C=C\c2ccccc2)cc1`, for which the IC50 in [1] was above 30 µM; in data set [2], above 30 µM; in [3], 0.77 µM.

On to `CC(C)(C)OC(=O)NCC#Cc1ccc(NC(=O)C(=O)O)cc1`, for which, in data set [1], the IC50 is above 100 µM.

As to `O=C(O)C(=O)Nc1ccc(C#Cc2ccc(C(F)(F)F)cc2Cl)cc1`, the Drug uptake result in [4] was “Active”. Further, the IC50 in [1], in data set [2] and in [5] was above 30 µM in each case. Moreover, in [6], the Stability entry is “Stable”. Besides, the Activity result in the data set on MEF is “Non-Toxic”.

With `C#Cc1ccc(NC(=O)C(=O)O)cc1`, the IC50 in data set [1] and in [2] was above 100 µM in each case.

In the case of `O=C(O)C(=O)Nc1ccc(C#Cc2ccc(O)c(Br)c2)cc1`, the IC50 in data set [1] and in [5] was above 50 µM throughout.

`O=C(O)C(=O)Nc1ccc(C#Cc2ccc(C(F)(F)F)cc2Br)cc1`: the Drug uptake result in data set [4] is recorded as “Active”. In [6], the Stability entry is given as “Stable”.

Regarding `CN(C)c1cc(O)c(C(=O)O)cc1C#Cc1cccc(NC(=O)C(=O)O)c1`, the IC50 in data set [3] amounted to 0.16 µM.

Turning to `O=C(O)C(=O)Nc1ccc(C#Cc2ccc(O)cc2)cc1`, the IC50 in [1], in data set [2] and in [5] was above 50 µM in each case.

Turning to `CC(C)(C)c1ccc(C#Cc2ccc(NC(=O)C(=O)O)cc2)cc1`, the IC50 in data set [1] was above 50 µM; in data set [2], above 50 µM; in [5] it was above 50 µM; in [3], 0.026 µM.

In turn, `O=C(O)C(=O)Nc1cnc2ccccc2c1` came in with an IC50 in data set [3] above 10 µM.

With `CN(C)c1cc(O)c(C(=O)O)cc1C#Cc1ccc(NC(=O)C(=O)O)cc1`, the IC50 is above 100 µM in data set [1] and 0.09 µM in data set [3].

Consider `O=C(O)C(=O)Nc1ccc(C#Cc2ccc(C(F)(F)F)cc2)cc1`, for which, in [4], the Drug uptake entry is “Active”. Besides, the IC50 in [1] was above 50 µM; in [2] it was above 50 µM; in [5] it was above 50 µM; in data set [7] it was above 30 µM. In data set [6], the Stability result is given as “Stable”.

In the case of `NS(=O)(=O)c1ccc(C#Cc2ccc(NC(=O)C(=O)O)cc2)cc1`, the IC50 in data set [1] and in [2] was above 50 µM in each case.

Take `O=C(O)C(=O)Nc1ccc(C#Cc2ccc(OC(F)(F)F)cc2)cc1`: the IC50 in data set [1], in data set [2] and in data set [5] was above 50 µM each time.

In the case of `O=C(O)C(=O)Nc1ccccc1`, the IC50 in data set [1] and in data set [2] was above 100 µM in each case.

Regarding `COC(=O)c1ccc(C#Cc2ccc(NC(=O)C(=O)O)cc2)cc1O`, the IC50 in data set [1], in [2] and in data set [5] was above 50 µM in each case.

Take `O=C(O)C(=O)Nc1ccc(CCc2ccc(C(F)(F)F)cc2)cc1`: the IC50 in [1] was above 30 µM; in [2], above 30 µM; in [3], 0.197 µM.

With `COC(=O)c1cc(C#Cc2ccc(NC(=O)C(=O)O)cc2)c(N(C)C)cc1O`, the IC50 in [1] was above 50 µM; in data set [2], above 50 µM; in data set [5], above 50 µM; in data set [3], 0.03 µM.

As to `O=C(O)C(=O)Nc1ccc(CCc2ccccc2)cc1`, the values for the IC50 in data set [1], in [2] and in data set [3] were above 30 µM, above 30 µM and 1.27 µM, respectively.

With `O=C(O)C(=O)Nc1ccc(C#Cc2ccccc2)cc1`, the IC50 in [1] is above 100 µM; in data set [2], above 100 µM; in data set [5], above 100 µM; in data set [3], 0.257 µM.

For the molecule `COC(=O)c1cc(C#Cc2cccc(NC(=O)C(=O)O)c2)c(N(C)C)cc1O`, the IC50 in [1], in data set [2] and in [5] was above 50 µM each time.

`COC(=O)c1cc(C#Cc2ccc(NC(=O)C(=O)O)cc2)ccc1O`: the figures for the IC50 in data set [1], in [5] and in data set [3] were above 50 µM, above 50 µM and 0.025 µM, respectively.

As to `O=C(O)C(=O)Nc1ccc(C#Cc2ccc(C(F)(F)F)cc2F)cc1`, in [4], the Drug uptake result is on record as “Active”. Further, the IC50 in [1], in [2] and in [5] was above 30 µM in each case. Further, in data set [6], the Stability result is reported as “Stable”.

`O=C(O)C(=O)Nc1ccc(C#Cc2cc(C(F)(F)F)cc(C(F)(F)F)c2)cc1`: the IC50 in data set [1] is above 50 µM; in data set [2] it was above 50 µM; in data set [5], above 50 µM; in data set [3], 0.06 µM. Moreover, the TDI result in data set [8] and in data set [9] was “Active” each time.

For the molecule `O=C(O)C(=O)Nc1ccc(/C=C\c2ccc(C(F)(F)F)cc2)cc1`, the figures for the IC50 in data set [1], in data set [2] and in data set [3] were above 30 µM, above 30 µM and 0.684 µM, respectively.

As for `O=C(O)C(=O)Nc1ccc(C#Cc2ccc(C(F)(F)F)cc2C(F)(F)F)cc1`, the IC50 in [1], in data set [2] and in data set [5] was above 30 µM throughout.

Molecule `O=C(O)C(=O)Nc1cccc(C#Cc2ccccc2)c1` had a concentration for half-maximal inhibition (IC50) in [1] above 100 µM.

`O=C(O)C(=O)Nc1ccc(C#Cc2cccc(C(F)(F)F)c2)cc1`: the IC50 in data set [2] and in [5] was above 50 µM in each case.

As to `O=C(O)C(=O)Nc1ccc(C#Cc2ccc3ccccc3c2)cc1`, the IC50 in data set [1], in data set [2] and in data set [5] was above 50 µM each time.

In the case of `CC(C)(C)OC(=O)Nc1ccc(C#Cc2ccc(NC(=O)C(=O)O)cc2)cc1`, the IC50 in data set [1], in data set [2] and in [5] was above 50 µM throughout. For the same molecule, in the data set with MEF, the Activity entry is recorded as “Non-Toxic”.

As for `N#Cc1ccc(C#Cc2ccc(NC(=O)C(=O)O)cc2)cc1`, the IC50 in data set [1], in data set [2] and in data set [5] was above 50 µM in each case.
